The values below come from PubChem BioAssay (NCI).

Each structure is given as a SMILES string.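 Briefly, cells in 96-well plates were exposed to five compound concentrations for 48 h, and endpoints were estimated by linear interpolation. GI50 marks 50% less growth. Definition used: TGI = concentration required for complete inhibition of growth.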 Where only a bound is given, the exact number is not on record here.

Some test systems named below: HCT-116 colon; RPMI-8226 leukemia; OVCAR-5 ovarian; RXF 393 renal; CCRF-CEM leukemia; SW-620 colon; MCF7 breast; NCI-H522 lung; HL-60(TB) leukemia; UACC-257 melanoma.
Holding throughout (experiment): NCI tumour cell line growth inhibition, 48 h

Regarding `CNCCOC(=O)/C=C1\CC[C@H]2[C@@H]([C@@H](O)C(=O)[C@@H]3[C@]2(C)CC[C@H](O)[C@]3(C)C(=O)OC)[C@H]1C`, the GI50 was 0.294 µM in the assay on HCT-116 colon; 0.454 µM in the assay on RPMI-8226 leukemia; 1.18 µM in the assay on OVCAR-5 ovarian; 0.205 µM in the assay on RXF 393 renal; 0.291 µM in the assay on CCRF-CEM leukemia; 0.318 µM with SW-620 colon. Moreover, the GI50 in the assay with MCF7 breast was 0.368 µM; with NCI-H522 lung, 0.249 µM; in the assay on HL-60(TB) leukemia it was 0.244 µM; with UACC-257 melanoma, 0.479 µM. Besides, the TGI with HCT-116 colon stood at 1.03 µM; in the assay with RPMI-8226 leukemia, 2.65 µM; in the assay with OVCAR-5 ovarian it was 2.68 µM; in the assay with RXF 393 renal, 0.579 µM; in the assay with CCRF-CEM leukemia, 1.09 µM; in the assay with SW-620 colon, 1.14 µM. The TGI with MCF7 breast was determined as 1.7 µM; with NCI-H522 lung it was 0.813 µM; with HL-60(TB) leukemia it was 0.687 µM; in the assay with UACC-257 melanoma, 1.73 µM.
Consider `CCC[CH2][Sn]([CH2]CCC)([O]C(=O)c1ccc(OC)c(OC)c1OC)[O][Sn]([CH2]CCC)([CH2]CCC)[O]C(=O)c1ccc(OC)c(OC)c1OC`, for which the GI50 in the assay on HCT-116 colon is 0.276 µM; in the assay on RPMI-8226 leukemia, 0.104 µM; with OVCAR-5 ovarian, 1.52 µM; with RXF 393 renal it was 0.153 µM; with CCRF-CEM leukemia, 0.0133 µM; with SW-620 colon, 0.0889 µM. Besides, the GI50 with MCF7 breast is 0.133 µM; in the assay on NCI-H522 lung, less than 0.0108 µM; in the assay on HL-60(TB) leukemia it was 0.112 µM; in the assay on UACC-257 melanoma, 0.217 µM. The TGI in the assay on HCT-116 colon is 0.833 µM; in the assay on RPMI-8226 leukemia it was 0.846 µM; in the assay on OVCAR-5 ovarian, 2.85 µM; in the assay on RXF 393 renal, 0.38 µM; in the assay on CCRF-CEM leukemia it was 0.161 µM; in the assay on SW-620 colon, 0.271 µM. For the same compound, the TGI in the assay with MCF7 breast is 1.28 µM; with NCI-H522 lung, 0.0392 µM; in the assay with HL-60(TB) leukemia it was 0.554 µM; in the assay on UACC-257 melanoma, 0.549 µM.
With `COC(=O)c1ccc2c(c1)C(=O)c1c-2n(CCCN=[N+]=[N-])c(=O)c2cc(OC)c(OC)cc12`, the GI50 in the assay on HCT-116 colon, in the assay with RPMI-8226 leukemia, with OVCAR-5 ovarian, in the assay with RXF 393 renal, with CCRF-CEM leukemia and in the assay with SW-620 colon was greater than 100 µM in each case. The GI50 in the assay on MCF7 breast is greater than 100 µM; in the assay with NCI-H522 lung, greater than 100 µM; with HL-60(TB) leukemia, 91.9 µM; in the assay with UACC-257 melanoma, greater than 100 µM. Further, the TGI in the assay with HCT-116 colon, in the assay on RPMI-8226 leukemia, in the assay on OVCAR-5 ovarian, with RXF 393 renal, in the assay on CCRF-CEM leukemia and in the assay on SW-620 colon was greater than 100 µM throughout. For the same compound, the TGI in the assay with MCF7 breast, in the assay with NCI-H522 lung, with HL-60(TB) leukemia and in the assay with UACC-257 melanoma was greater than 100 µM in each case.
As to `CCOC(=O)Nc1cc2c(c(N)n1)N=C(c1ccccc1)CO2`, the GI50 was 0.084 µM in the assay with HCT-116 colon; 0.126 µM with RPMI-8226 leukemia; 1.15 µM in the assay on OVCAR-5 ovarian; 0.275 µM in the assay on RXF 393 renal; 0.0653 µM in the assay on CCRF-CEM leukemia; 0.0496 µM in the assay with SW-620 colon. Also, the GI50 in the assay with MCF7 breast is 0.1 µM; in the assay on NCI-H522 lung it was 0.268 µM; in the assay on HL-60(TB) leukemia it was 0.0303 µM; in the assay on UACC-257 melanoma it was 17.5 µM. In addition, the TGI came to 13.9 µM with HCT-116 colon; 48.5 µM in the assay with OVCAR-5 ovarian; 32.1 µM with RXF 393 renal; 4.42 µM with CCRF-CEM leukemia; 98.2 µM in the assay on SW-620 colon; 21 µM in the assay on MCF7 breast. Further, the values for the TGI with NCI-H522 lung and in the assay with UACC-257 melanoma were 13 µM and 99.6 µM, respectively.
`O=c1c(F)cn(Cc2ccc(C34CC5CC(CC(C5)C3)C4)c(O)c2)c(=O)n1Cc1ccc(C23CC4CC(CC(C4)C2)C3)c(O)c1`: the GI50 with HCT-116 colon is 11.1 µM; with RPMI-8226 leukemia it was 15.4 µM; in the assay on OVCAR-5 ovarian, 13.5 µM; with RXF 393 renal, 6.5 µM; in the assay with CCRF-CEM leukemia it was 9.46 µM; in the assay with SW-620 colon, 10.7 µM. Also, the GI50 was 9.83 µM in the assay on MCF7 breast, 15.9 µM with NCI-H522 lung, 8.32 µM in the assay on HL-60(TB) leukemia and 20.7 µM in the assay on UACC-257 melanoma. For the same compound, the TGI with HCT-116 colon is 25 µM; in the assay with RPMI-8226 leukemia, 60.4 µM; with OVCAR-5 ovarian, 28.1 µM; in the assay with RXF 393 renal, greater than 100 µM; with CCRF-CEM leukemia, greater than 100 µM; in the assay on SW-620 colon it was 26.4 µM. The TGI in the assay with MCF7 breast was 30.6 µM; with NCI-H522 lung it was 32.9 µM; with HL-60(TB) leukemia, 54.2 µM; with UACC-257 melanoma, 50.7 µM.
As to `COc1cc(Cl)cc(-c2nn(-c3cccc(NC(=O)c4ccc(N5CCOCC5)c(C(F)(F)F)c4)c3)cc2-c2ccncc2)c1`, the GI50 in the assay on HCT-116 colon is 9.64 µM; with RPMI-8226 leukemia, 1.5 µM; in the assay on OVCAR-5 ovarian, 32.5 µM; with RXF 393 renal, 0.83 µM; in the assay on CCRF-CEM leukemia, 3.88 µM; in the assay on SW-620 colon it was 29.8 µM. For the same compound, the GI50 in the assay with MCF7 breast is 8.71 µM; in the assay on NCI-H522 lung, 4.72 µM; with HL-60(TB) leukemia, 4.19 µM; in the assay with UACC-257 melanoma it was 21.7 µM. Besides, the TGI in the assay on HCT-116 colon was greater than 100 µM; with RPMI-8226 leukemia it was greater than 100 µM; in the assay on OVCAR-5 ovarian it was greater than 100 µM; with RXF 393 renal, 23.9 µM; in the assay on CCRF-CEM leukemia, greater than 100 µM; in the assay with SW-620 colon, greater than 100 µM. Further, the TGI was greater than 100 µM in the assay with MCF7 breast, greater than 100 µM with NCI-H522 lung, 33.2 µM with HL-60(TB) leukemia and 69.1 µM in the assay with UACC-257 melanoma.
Consider `Nc1ncn([C@@H]2O[C@H](CO)[C@@H](O)[C@H]2O)c(=O)n1`, for which the GI50 in the assay on HCT-116 colon is 0.322 µM; with RPMI-8226 leukemia, 0.669 µM; in the assay on OVCAR-5 ovarian, 2.57 µM; with RXF 393 renal, 0.346 µM; in the assay with CCRF-CEM leukemia it was 1.95 µM; in the assay on SW-620 colon, 1.71 µM. In addition, the GI50 with MCF7 breast is 1.24 µM; in the assay with NCI-H522 lung, 1.29 µM; with HL-60(TB) leukemia, 0.699 µM. The TGI with HCT-116 colon is 1.71 µM; with RPMI-8226 leukemia it was greater than 100 µM; in the assay on OVCAR-5 ovarian, greater than 100 µM; in the assay with RXF 393 renal, 4.64 µM; with CCRF-CEM leukemia it was greater than 100 µM; in the assay with SW-620 colon, greater than 100 µM. Moreover, the TGI was found to be 18.2 µM with MCF7 breast, 5.84 µM in the assay with NCI-H522 lung and 4.91 µM in the assay on HL-60(TB) leukemia.
